The source of these data is US9763996B2, “Polymyxin derivative and uses thereof” (Northern Antibiotics Ltd., priority 2015, dated 2017).

Values after ≈ are worked out from the molar mass of the structure shown. “Also recorded” adds a separate entry of the source. Where two headings read alike, the source gives them in different places. Where a SMILES comes first, the peptide text is derived from it. Bridges are numbered along the chain shown (N, C = ends). [ ]: non-standard residue; d: D form. The star is where a group is joined. Octanoyl = CCCCCCCC(=O)*; Dab = NCC[C@H](N)C(=O)O

Data set [1] concerns A. baumannii JMI 48125. Description: microbe, parasite or virus in culture. The note with it: Acinetobacter baumannii, JMI48125.
Data set [2] relates to E. coli JMI 3328. The experiment in a line: microbe, parasite or virus in culture. Particulars: Escherichia coli, JMI3328.
Data set [3] relates to E. coli JMI 109. The experiment in a line: microbe, parasite or virus in culture. Particulars: Escherichia coli, JMI109.
Data set [4] has as its system K. pneumoniae JMI 27072. The experiment in a line: microbe, parasite or virus in culture. Particulars: Klebsiella pneumoniae, JMI27072.
In data set [5] the test system is A. baumannii CMI 417. Description: microbe, parasite or virus in culture. Particulars: Acinetobacter baumannii, CMI417.
Data set [6] relates to K. pneumoniae JMI 27068. Description: microbe, parasite or virus in culture. The note with it: Klebsiella pneumoniae, JMI27068.
In data set [7] the test system is K. pneumoniae ATCC 43816. Description: microbe, parasite or virus in culture. The note with it: Klebsiella pneumoniae, ATCC43816.
Data set [8] relates to E. coli ATCC 25922. Description: microbe, parasite or virus in culture. The note with it: Escherichia coli, ATCC25922.
For data set [9], the system named is A. baumannii ATCC 19606. The experiment in a line: microbe, parasite or virus in culture. Particulars: Acinetobacter baumannii, ATCC19606.
Data set [10] relates to P. aeruginosa JMI 7445. The experiment in a line: microbe, parasite or virus in culture. Particulars: Pseudomonas aeruginosa, JMI7445.
The test system of data set [11] is P. aeruginosa ATCC 27853. Description: MIC assay (CLSI broth microdilution; checkerboard with rifampin). Particulars: Pseudomonas aeruginosa, ATCC27853.
Data set [12] relates to P. aeruginosa JMI 7445. Particulars: JMI 7445.
For data set [13], the system named is K. pneumoniae JMI 27072. The note with it: JMI 27072.
The test system of data set [14] is P. aeruginosa. The experiment in a line: Synergy studies with rifampin. It is filed as cell-based, Pseudomonas aeruginosa. Particulars: against P. aeruginosa. As to the method:
Synergy studies were performed by using polymyxin derivatives in combination with rifampin, a model compound for such antibacterial agents that the intact outer membrane of Gram-negative bacteria acts as a permeability barrier.

In data set [15] the test system is A. baumannii CMI 417. Particulars: alone; A. baumannii CMI 417 (polymyxin-nonsusceptible).
Data set [16] can be described thus: Toxicokinetics (plasma and urine) in cynomolgus monkeys. Particulars: cynomolgus monkey, in vivo; for AUC: plasma. As to the method:
(§1) For seven days, the animals were dosed by intravenous (IV) infusion three times daily (TID) at a dose volume of 10 mL/kg for 1 hour (±10 minutes), 8±0.5 hours apart. The day of initial dose administration was designated study Day 1, with subsequent days consecutively numbered. Days prior to the initial dose administration were consecutively numbered with the final day of acclimation referenced as Day −1.
(§2) The following parameters were evaluated at designed intervals: clinical observations, body weights, clinical pathology (hematology, coagulation, serum chemistry, urinalysis including urine sediments and urine chemistry), toxicokinetics (plasma and urine) and anatomic pathology (kidney). In cases of animals sacrificed on an unscheduled basis, samples were taken on the day of the sacrifice.
Plasma and urine concentrations for toxicokinetic (TK) studies were determined by using liquid chromatograph interfaced with a mass spectrometer after precipitation of proteins. A sample (100 μL) was mixed with internal standard solution in water:formic acid (99:1 v/v; […]). Then, 600 μL of 100:1 acetonitrile:formic acid was added. The plates were centrifuged at 3200 rpm for 5 minutes. Using a Tomtec Quadra96, a 450 μL aliquot was transferred to a new 96-well plate and dried under nitrogen at 40° C. Then, 200 μL of water:methanol:formic acid (85:15:1 1 v/v) was added and the plate sealed for LC-MS/MS injection. LC-MS system consisted of Waters Acquity liquid chromatograph interfaced with a Thermo Scientific TSQ Quantitative triple quadrupole MS with ionization in the positive ion mode. Each sample (20 μL) was injected onto a Waters Acquity BEH Shield RP18 column (2.1×50 mm; 1.7 μm) equilibrated at 50° C. Mobile Phase A was 85:15:1 v/v water:methanol:formic acid. Mobile Phase B was 50:50:1 v/v acetonitrile:methanol:formic acid.
Peak area ratios from the calibration standard responses were regressed using a (1/concentration^2) linear fit for polymyxin B using colistin as the internal standard. For NAB739 and NAB815, peak areas from the calibration standard responses were regressed using a (1/concentration^2) quadratic fit (without the use of an internal standard).
The regression models were chosen based upon the behavior of the analytes across the concentration range used during development.
Toxicokinetic analysis was performed by using WinNonlin Phoenix version 6.3 software (Pharsight, Cary, N.C.). For plasma TK, noncompartmental IV infusion model was used.
In the cynomolgus monkey studies described in Example 3, where the peptides were administered as a 1-hour intravenous infusion three times daily, plasma and urine levels of the peptides were determined.

Data set [17] has as its system E. coli JMI 3328. The note with it: JMI 3328.
Data set [18] concerns K. pneumoniae ATCC 43816. The note with it: ATCC 43816.
The subject of data set [19] is A. baumannii ATCC 19606. Particulars: ATCC 19606.
The nature of data set [20]: 7-day IV infusion toxicity (nephrotoxicity) study in cynomolgus monkeys. As to the method:
In vivo toxicity and toxicokinetic studies were performed by using cynomolgus monkeys. The laboratory that performed the animal studies is accredited by the Association for Assessment and Accreditation of Laboratory Animal Care (AAALAC), has an Animal Welfare Assurance issued by the Office of Laboratory Animal Welfare (OLAW), is registered with the United States Department of Agriculture (USDA), and has an Institutional Animal Care and Use Committee (IACUC) responsible for compliance with applicable laws and regulations concerning the humane care and use of laboratory animals.
Naïve female cynomolgus monkeys were acclimatized to study room for 28 days during which each animal was implanted with a permanent indwelling femoral catheter to permit continuous intravenous infusions. The animals were allowed surgical recovery period of at least 2 weeks before initiating dosing.
Polymyxin B sulfate was from Sigma-Aldrich (catalogue number P0972, lot number BCBF8382V). On each day of use, appropriate quantities of NAB739, NAB815 or polymyxin B were weighed and dissolved in appropriate volumes of sterile saline to prepare a stock solution for each test article and positive control. A correction factor was used in the stock solution preparation to account for both the purity and sulfate content in each test article. Accordingly, the dose (such as 36 mg/kg/d) refers to the dose of the pure peptide as its free base form, not as its sulfate salt.
The doses were the following: polymyxin B 18 mg/kg/d (Group 1), polymyxin B 24 mg/kg/d (Group 2), NAB739 24 mg/kg/d (Group 3), NAB739 36 mg/kg/d (Group 4), NAB815 24 mg/kg/d (Group 5), NAB815 36 mg/kg/d (Group 6). Three animals were included in each study groups.
as §1, §2
On the day of necropsy, animals were sedated with ketamine, weighed, and anesthetized with an intravenous injection of a commercial pentobarbital and phenytoin solution, followed by exsanguinations.
At necropsy, gross observations and organ weights were recorded, and specific tissues were collected. Histopathology was conducted on sections of kidney stained with hematoxylin and eosin (H&E).
The figures also show Urine N-acetyl-β-D-glucosaminidase/urine creatinine ratio (U-NAG/Crea; FIG. 3) and Urine Gamma Glutamyltransferase/urine creatinine ratio (U-GGT/Crea; FIG. 4), both urine biomarkers for kidney injury, in those animals. S-Crea and U-Crea were measured by using an Olympus Analyzer (OA) and the modified Jaffe method, S-BUN by using OA and urease/L-glutamate dehydrogenase. U-NAG was measured by using OA/enzymatic, and U-GGT by using OA and glutamyl-carboxy-p-nitroanilide IFCC.
The presence of the following nephro-pathological parameters was recorded in each animal: tubular basophilia (re-generation), tubular degeneration/necrosis, infiltration (by mononuclear and/or mixed inflammatory cells), tubular dilatation, and tubular casts.

Data set [21] relates to E. coli ATCC 25922. The note with it: ATCC 25922.
Data set [22] deals with E. coli JMI 109. The note with it: JMI 109.

In the case of `CO[C@H]1/C=C/O[C@@]2(C)Oc3c(C)c(O)c4c(O)c(c(/C=N/N5CCN(C)CC5)c(O)c4c3C2=O)NC(=O)/C(C)=C\C=C\[C@H](C)[C@H](O)[C@@H](C)[C@@H](O)[C@@H](C)[C@H](OC(C)=O)[C@@H]1C` [rifampin], the MIC was determined as 4 µg/mL (≈ 4.86 µM) in [1]; 8 µg/mL (≈ 9.72 µM) in data set [2]; 16 µg/mL (≈ 19.4 µM) in [3]; 8 µg/mL (≈ 9.72 µM) in data set [4]; 4 µg/mL (≈ 4.86 µM) in data set [5]; 64 µg/mL (≈ 77.8 µM) in data set [6]. The MIC in [7] was 16 µg/mL (≈ 19.4 µM); in data set [8], 8 µg/mL (≈ 9.72 µM); in [9], 4 µg/mL (≈ 4.86 µM); in data set [10] it was 32 µg/mL (≈ 38.9 µM); in data set [11] it was 32 µg/mL.

For the molecule `CCCCCCCC(=O)N[C@H](C(=O)N[C@H](CO)C(=O)N[C@H]1CCNC(=O)[C@H]([C@@H](C)O)NC(=O)[C@H](CCN)NC(=O)[C@H](CCN)NC(=O)[C@H](CC(C)C)NC(=O)[C@@H](Cc2ccccc2)NC(=O)[C@H](CCN)NC1=O)[C@@H](C)O` [NAB739, octanoyl-Thr-DSer-[cyclo-α,γDab-αDab-DPhe-Leu-αDab-αDab-Thr]] (Octanoyl-T[dS][Dab][Dab][dF]L[Dab][Dab]T; lactam 3-C), the MIC was 4 µg/mL (≈ 3.72 µM) in data set [12]; 2 to 4 µg/mL in [13]; 128 µg/mL (≈ 119 µM) in data set [15]; 2 µg/mL (≈ 1.86 µM) in data set [17]; 4 µg/mL (≈ 3.72 µM) in [18]; 4 µg/mL (≈ 3.72 µM) in [19]. For the same molecule, the MIC in data set [21] was found to be 2 µg/mL (≈ 1.86 µM); in data set [22] it was 32 µg/mL (≈ 29.7 µM). Further, in [14], the “synergistic activity with rifampin” value is listed as “lacked any notable synergistic activity with rifampin”. The AUC was found to be 239 µg·h/mL in [16] (36 mg/kg/day, AUCs, dosed at 36 mg/kg/d, day 1); 108 µg·h/mL in data set [16] (iv, 8 mg/kg, AUCs 0-8 h, after infusion of 8 mg/kg, day 1); 137 µg·h/mL in data set [16] (iv, 8 mg/kg, AUCs 0-8 h, after infusion of 8 mg/kg, day 7); 302 µg·h/mL in data set [16] (iv, 36 mg/kg/day, AUCs, dosed at 36 mg/kg/d, day 7). Besides, the dose excreted in data set [16] (female, iv, 36 mg/kg/d, urinary recoveries (0-8 h urine collection), 36 mg/kg/d, day 1, each animal) stood at 15.4%. For the same molecule, in data set [20] (36 mg/kg/d IV TID 7 days), the “kidney injury markers (S-BUN, S-Crea, U-NAG/Crea, U-GGT/Crea)” value is reported as “all the four markers were significantly elevated; also recorded: both urine biomarkers were remarkably elevated”. Besides, the “unscheduled necropsy / euthanized due to severe nephrotoxic effects” value in [20] (36 mg/kg/d IV TID 7 days, 3 animals per group) is “One animal receiving NAB739 at 36 mg/kg/d had to be euthanized; also recorded: on Day 5 for one animal in the NAB739 group”. Besides, the “kidney histopathology findings (grade of nephro-pathological parameters)” value in data set [20] (36 mg/kg/d IV TID, H&E kidney sections, per animal(s)) was “marked tubular degeneration/necrosis; also recorded: marked presence of tubular casts; also recorded: moderate findings, both in two parameters”.
